Results on 14 compounds are retold here after patent US8785424B2, “ngCycloartanone derivatives with anticancer activity” (Pierre Fabre Medicament, priority 2009, dated 2014).

Structures can show the parent of a compound that is named as a salt.

This assay concerns proteasome. The assay is described as follows: Cellular proteasome inhibition test: accumulation of 4Ub-Luc reporter (luciferase activity) in DLD-1 4Ub-Luc cell line. Format: cell-based, human. The note with it: DLD-1 4Ub-Luc cells, 8 hours, epoxomicin = 100%. The procedure:
Biological tests were carried out according to protocols described in the following articles: Ausseil F. et al. J. Biomol Screen. 2007, 12, 106-116 and Vandenberghe I. et al. Biochemical Pharmacology 2008, 76, 453-462.
In order to select novel proteasome inhibitor compounds, it is necessary to indirectly measure the activity of this proteasome within cells. To this end, we constructed a stable cell line, DLD-1 4Ub-Luc, arising from a human colon cancer cell line, which produces a chimeric reporter protein called 4Ub-Luc. This protein is a fusion between a 4-ubiquitin (4Ub) label and luciferase (Luc). This label is capable to direct every proteins that carry it toward the proteasome. The 4Ub-Luc protein is thus efficiently degraded by the proteasome, in contrast to the “wild” non-fused Luc protein. When the DLD-1 4Ub-Luc cell line is treated with a proteasome inhibitor, the fusion protein is much less efficiently degraded and accumulates in the cell. This accumulation is detected by an increase in luciferase activity in the treated extract compared to the extract from untreated cells. The control consists of verifying that the inhibitor has no effect on accumulation of the wild Luc protein produced by the stable DLD-1 RF cell line. For both cell lines and for each product an induction factor is determined for the product tested (or the reference) corresponding to the ratio between the luciferase activities measured in cells treated with this product (or the reference) and cells treated with solvent alone.
The product's activity is then defined by its relative induction factor, i.e., the ratio of its induction factor (IF % luminescence) to that of the reference molecule epoxomicin (IF=100%; see data presented in the table below).
Thus, the test established by Pierre-Fabre is a cellular test that has the advantage, compared to a purely enzymatic test, of detecting only products capable of penetrating the cell.
Two cell lines are used for this test: DLD-1 RF and DLD-1 4Ub-Luc. The culture medium used is as follows: • MEM • 5% fetal calf serum • 5 ml of penicillin-streptomycin • 2.5 ml of FUNGIZONE® (Amphotericin B) • 10 ml of […]
Day 1: Inoculate white 96-well culture-treated plates (PerkinElmer White ViewPlate, product no. 6005181) with 100 μl of 1·10^5 c/ml cell suspension per well. Incubate for 24 hours so that the cells adhere. On each plate five columns will be inoculated with DLD-1 4Ub-Luc and five others with DLD-1 RF according to diagram 1 below.
Day 2: Remove the medium by turning the plates upside down on cotton, and then carry out the treatment with the compounds of the invention, with solvent alone or with a reference compound such as epoxomicin. […]
The columns are paired (examples 2 and 8, 3 and 9, 4 and 10 and 5 and 11) and treated with the same compound. Columns 6 and 7 receive the experimental control, namely 0.1% DMSO in culture medium for wells B, C, D, and E of columns 6 and 7, and the positive control (10^−7 M epoxomicin) in wells F and G.
After incubation, turn the plate upside down on cotton to empty the wells, rinse with 50 μl of PBS to remove any trace of the cytotoxin tested and then add 50 μl of 5× passive lysis buffer (Promega, product no. E1941) diluted to ⅕ in water. Shake energetically using a plate shaker for 5 to 10 minutes at room temperature before freezing at −20° C.
Luciferase activity is measured using a Luciferase Assay System 10-Pack kit (Promega, product no. E1501).
On the day luciferase activity is to be measured, defrost the plates and wait until they have returned to room temperature. The optimal temperature for luciferase activity is 20-25° C.
Reconstitute the firefly luciferase substrate by defrosting the buffer and then adding 10 ml of buffer to the bottle containing the freeze-dried substrate. Wait until the solution is at room temperature before beginning the assay. […]

The mark [1] stands for this setting: concentration tested 5 · 10^−6 M.
The mark [2] stands for this setting: concentration tested 5 · 10^−7 M.
Where [3] appears, read: concentration tested 5 · 10^−6 M, hydrochloride.
[4] abbreviates: concentration tested 10^−5 M, hydrochloride.
[5] abbreviates: concentration tested 10^−6 M, hydrochloride.

`C=C([C@@H](C)COC)C1(O)O[C@H]2C[C@@]3(C)C4CCC5[C@H](C)C(=O)C=C[C@@]56C[C@@]46CC[C@]3(C)[C@H]2[C@H](C)[C@H]1OC(C)=O` (stereo partly drawn) [Compound 51, 16-deacetyl-26-methoxy-neoboutomellerone-hemiacetal]: the “relative induction factor (IF % luminescence) versus epoxomicin” value runs as follows: under setting [1], 31%; (concentration tested 10^−5 M) 60%; (concentration tested 10^−6 M) 1%.

`C=C(C(=O)[C@H](OC(C)=O)[C@@H](C)[C@H]1[C@@H](OC(C)=O)C[C@@]2(C)C3CCC4[C@H](C)C(=O)C=C[C@@]45C[C@@]35CC[C@]12C)[C@@H](C)COC(=O)CNC(=O)OC(C)(C)C` (stereo partly drawn) [Compound 56, Neoboutomellerone 26-N-Boc-glycinate]: the “relative induction factor (IF % luminescence) versus epoxomicin” value under setting [1] came out at 34%, the “relative induction factor (IF % luminescence) versus epoxomicin” value (concentration tested 10^−5 M) is recorded as 7% and the “relative induction factor (IF % luminescence) versus epoxomicin” value (concentration tested 10^−6 M) was 21%.

For `C=C(C(=O)[C@H](O)[C@@H](C)[C@H]1[C@@H](OC(C)=O)C[C@@]2(C)C3CCC4[C@H](C)C(=O)C=C[C@@]45C[C@@]35CC[C@]12C)[C@@H](C)COC(=O)CNC(=O)OC(C)(C)C` (stereo partly drawn) [Compound 58, 22-deacetyl-neoboutomellerone 26-N-Boc-glycinate], the “relative induction factor (IF % luminescence) versus epoxomicin” value worked out at 46% under setting [1], 10% (concentration tested 10^−5 M) and 8% (concentration tested 10^−6 M).

Turning to `C=C(C(=O)[C@H](OC(=O)CNC(=O)OC(C)(C)C)[C@@H](C)[C@H]1[C@@H](OC(C)=O)C[C@@]2(C)C3CCC4[C@H](C)C(=O)C=C[C@@]45C[C@@]35CC[C@]12C)[C@@H](C)COC(C)=O` (stereo partly drawn) [Compound 60, 22-deacetyl-neoboutomellerone 22-(N-Boc-glycinate)-26-acetyl], the “relative induction factor (IF % luminescence) versus epoxomicin” value is recorded as 4% under setting [1], 76% under setting [2], 2% (concentration tested 10^−5 M) and 71% (concentration tested 10^−6 M).

`C=C(C(=O)[C@H](OC(=O)CCl)[C@@H](C)[C@H]1[C@@H](OC(C)=O)C[C@@]2(C)C3CCC4[C@H](C)C(=O)C=C[C@@]45C[C@@]35CC[C@]12C)[C@@H](C)COC(C)=O` (stereo partly drawn) [Compound 61, 22-chloroacetyl-26-acetyl-neoboutomellerone]: the “relative induction factor (IF % luminescence) versus epoxomicin” value reads like this: under setting [1], 21%; under setting [2], 23%; (concentration tested 10^−5 M) 6%; (concentration tested 10^−6 M) 64%.

For the compound `C=C(C(=O)[C@H](OC(C)=O)[C@@H](C)[C@H]1[C@@H](OC(C)=O)C[C@@]2(C)C3CCC4[C@H](C)C(=O)C=C[C@@]45C[C@@]35CC[C@]12C)[C@@H](C)COC(=O)CN(C)C` (stereo partly drawn) [Compound 62, Neoboutomellerone 26-N-dimethyl glycinate], the “relative induction factor (IF % luminescence) versus epoxomicin” value came out at 49% under setting [1], 7% (concentration tested 10^−5 M) and 11% (concentration tested 10^−6 M).

Consider `C=C(C(=O)[C@H](OC(C)=O)[C@@H](C)[C@H]1[C@@H](OC(C)=O)C[C@@]2(C)C3CCC4[C@H](C)C(=O)C=C[C@@]45C[C@@]35CC[C@]12C)[C@@H](C)COC(=O)CN(C)C` (stereo partly drawn) [Compound 63, neoboutomellerone 26-N-dimethyl glycinate hydrochloride], for which the “relative induction factor (IF % luminescence) versus epoxomicin” value runs as follows: under setting [3], 11%; under setting [2], 66%; under setting [4], 3%; under setting [5], 50%.

Take `C=C(C(=O)[C@H](O)[C@@H](C)[C@H]1[C@@H](OC(C)=O)C[C@@]2(C)C3CCC4[C@H](C)C(=O)C=C[C@@]45C[C@@]35CC[C@]12C)[C@@H](C)COC(=O)CN(C)C` (stereo partly drawn) [Compound 64, 22-deacetyl-neoboutomellerone 26-N-dimethyl glycinate]: the “relative induction factor (IF % luminescence) versus epoxomicin” value by setting is: under setting [1], 35%; (concentration tested 10^−5 M) 7%; (concentration tested 10^−6 M) 22%.

Take `C=C(C(=O)[C@H](O)[C@@H](C)[C@H]1[C@@H](OC(C)=O)C[C@@]2(C)C3CCC4[C@H](C)C(=O)C=C[C@@]45C[C@@]35CC[C@]12C)[C@@H](C)COC(=O)CN(C)C` (stereo partly drawn) [Compound 65, 22-deacetyl-neoboutomellerone 26-N dimethyl glycinate hydrochloride]: the “relative induction factor (IF % luminescence) versus epoxomicin” value by setting is: under setting [3], 34%; under setting [2], 1%; under setting [4], 4%; under setting [5], 17%.

`C=C(C(=O)[C@H](O)[C@@H](C)[C@H]1[C@@H](OC(C)=O)C[C@@]2(C)[C@@H]3CC[C@H]4[C@H](C)C(=O)C=C[C@@]45C[C@@]35CC[C@]12C)[C@@H](C)COC(=O)CCN(CC)CC` [Compound 66, 26-deacetyl-neoboutomellerone 26-N-diethyl-β-alaninate]: the “relative induction factor (IF % luminescence) versus epoxomicin” value was 9% under setting [1], 2% (concentration tested 10^−5 M) and 13% (concentration tested 10^−6 M).

As to `C=C(C(=O)[C@H](OC(C)=O)[C@@H](C)[C@H]1[C@@H](OC(C)=O)C[C@@]2(C)C3CCC4[C@H](C)C(=O)C=C[C@@]45C[C@@]35CC[C@]12C)[C@@H](C)COC(=O)CCC(=O)O` (stereo partly drawn) [Compound 68, 26-succinate-neoboutomellerone], the “relative induction factor (IF % luminescence) versus epoxomicin” value was 18% under setting [1], 1% under setting [2], 4% (concentration tested 10^−5 M) and 52% (concentration tested 10^−6 M).

On to `C=C(C(=O)[C@H](O)[C@@H](C)[C@H]1[C@@H](OC(C)=O)C[C@@]2(C)C3CCC4[C@H](C)C(=O)C=C[C@@]45C[C@@]35CC[C@]12C)[C@@H](C)COC(=O)CCC(=O)O` (stereo partly drawn) [Compound 71, 26-succinate-22-deacetyl-neoboutomellerone], for which the “relative induction factor (IF % luminescence) versus epoxomicin” value stood at 11% under setting [1], 6% under setting [2], 4% (concentration tested 10^−5 M) and 62% (concentration tested 10^−6 M).

In the case of `C=C(C(=O)[C@H](OC(=O)CCC(=O)O)[C@@H](C)[C@H]1[C@@H](OC(C)=O)C[C@@]2(C)C3CCC4[C@H](C)C(=O)C=C[C@@]45C[C@@]35CC[C@]12C)[C@@H](C)COC(C)=O` (stereo partly drawn) [Compound 74, 22-deacetyl-22-succinate-26-acetyl-neoboutomellerone N-methylglucamine salt], the “relative induction factor (IF % luminescence) versus epoxomicin” value amounted to 14% under setting [1], 2% (concentration tested 10^−5 M) and 60% (concentration tested 10^−6 M).

For the compound `C=C(C(=O)[C@H](OC(C)=O)[C@@H](C)[C@H]1[C@@H](OC(C)=O)C[C@@]2(C)C3CCC4[C@H](C)C(=O)C=C[C@@]45C[C@@]35CC[C@]12C)[C@@H](C)COC1(C)OC2OC(COC(C)=O)C(OC(C)=O)C(OC(C)O)C2O1` (stereo partly drawn) [Compound 82, Neoboutomellerone 26-(2,3,4,6-tetraacetyl-glucosylate)], the “relative induction factor (IF % luminescence) versus epoxomicin” value is 59% under setting [1], 48% (concentration tested 10^−5 M) and 2% (concentration tested 10^−6 M).
